{"source": "patent US9675579B2", "about": "“Tetrahydrocannabivarin for use in the treatment of nausea and vomiting” (GW Pharma Limited, priority 2013, dated 2017)", "key": {"[1]": {"test_system": "Sprague-Dawley rats", "test": "Potentiation or attenuation of LiCl-induced conditioned gaping (Example 2)", "type": "in vivo, rat", "details": "for LiCl-induced conditioned gaping reactions relative to group VEH: rats, drug-free test 72 h later", "description": "Animals and Drugs and Materials were as described in Example 1 above.\nFollowing recovery from intraoral cannulation surgery, the rats received the adaptation trial to the TR test as described in Example 1 above. On the day of conditioning (saccharin palatability test), the rats were injected with VEH (n=10), 2.5 mg/kg SR (n=10), 2.5 mg/kg THC (n=6), 10 mg/kg THC (n=7), 2.5 mg/kg THCV (n=10) or 10 mg/kg THCV (n=6), 2.5 mg/kg CBDV (n=10) or 200 mg/kg CBDV (n=13). Thirty min later, each rat was intraorally infused with 0.1% saccharin solution while their orofacial responses were video recorded from the mirror beneath the chamber. Immediately following the 2 min intraoral infusion of saccharin, the rats were injected with 20 ml/kg or 0.15 M LiCl.\nSeventy-two hours later, the rats received a drug-free test trial, during which they received a 2 min intraoral infusion of 0.1% saccharin solution and the frequency of gaping was measured. The videotapes were later scored (at 1/2 speed) by an observer blind to the experimental conditions for the hedonic reaction of tongue protrusions (at conditioning and testing). As well, to determine other non-specific effects of the drug during conditioning, the conditioning tapes were scored for bouts of active locomotion (forward movement of paws on the floor of the cage)."}, "[2]": {"test_system": "rodent", "details": "cited from earlier work; for suppression of toxin-induced conditioned gaping: rodent model of conditioned nausea"}, "[3]": {"test_system": "Sprague-Dawley rats", "test": "Conditioned gaping to saccharin paired with the compound (Example 1)", "description": "Naïve male Sprague-Dawley rats, obtained from Charles River Laboratories (St Constant, Quebec) were single-housed in shoebox cages in the colony room at an ambient temperature of 21° C. with a 12/12 light/dark schedule (lights off at 8 AM) and maintained on ad-libitum food and water.\nDrugs and Materials: All cannabinoid compounds were prepared in a vehicle (VEH) of ethanol/Cremophor (Sigma)/saline (SAL; 1:1:18) and administered intraperitonally (i.p.).\nSR was prepared at 2.5, 10 and 20 mg/kg and administered at a volume of 2 ml/kg. CBDV was prepared at 2.5 and 10 mg/kg and administered at a volume of 2 ml/kg. A high dose of CBDV was prepared at 200 mg/kg and administered at a volume 10 ml/kg. THCV was prepared at 2.5, 10 and 20 mg/kg and administered at a volume of 2 ml/kg.\nProcedures: Rats were implanted with intraoral cannulae under isofluorane anesthesia. […]\nSeventy two hours after the conditioning trial, the rats were returned to the TR chamber and intraorally infused with 0.1% saccharin solution and their orofacial reactions were video recorded with the feed from the video camera fire-wired into a computer. The video tapes are later scored (at 1/2 speed) by a trained observer blind to the experimental conditions for the behaviour of gaping (large openings of the mouth and jaw, with lower incisors exposed)."}, "[4]": {"biological_target": "CB1 receptor (Mus musculus, UniProt P47746)", "sequence (P47746 whole entry)": "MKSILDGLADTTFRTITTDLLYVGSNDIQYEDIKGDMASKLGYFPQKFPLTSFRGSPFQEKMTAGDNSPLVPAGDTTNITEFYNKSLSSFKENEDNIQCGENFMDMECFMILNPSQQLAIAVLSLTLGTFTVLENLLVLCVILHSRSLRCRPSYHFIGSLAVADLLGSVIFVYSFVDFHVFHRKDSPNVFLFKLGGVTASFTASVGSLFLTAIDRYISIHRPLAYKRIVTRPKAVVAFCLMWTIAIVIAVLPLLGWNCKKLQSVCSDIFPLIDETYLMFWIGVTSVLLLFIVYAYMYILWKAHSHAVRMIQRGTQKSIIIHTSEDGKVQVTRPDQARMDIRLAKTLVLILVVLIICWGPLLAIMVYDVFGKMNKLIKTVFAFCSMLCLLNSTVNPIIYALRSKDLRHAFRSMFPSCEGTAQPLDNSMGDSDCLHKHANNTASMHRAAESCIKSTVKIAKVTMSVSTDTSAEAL", "details": "low doses (<3 mg/kg), Pertwee et al., 2007; cited from earlier work"}, "[5]": {"biological_target": "CB1 receptor (Homo sapiens, UniProt P21554)", "sequence (P21554 whole entry)": "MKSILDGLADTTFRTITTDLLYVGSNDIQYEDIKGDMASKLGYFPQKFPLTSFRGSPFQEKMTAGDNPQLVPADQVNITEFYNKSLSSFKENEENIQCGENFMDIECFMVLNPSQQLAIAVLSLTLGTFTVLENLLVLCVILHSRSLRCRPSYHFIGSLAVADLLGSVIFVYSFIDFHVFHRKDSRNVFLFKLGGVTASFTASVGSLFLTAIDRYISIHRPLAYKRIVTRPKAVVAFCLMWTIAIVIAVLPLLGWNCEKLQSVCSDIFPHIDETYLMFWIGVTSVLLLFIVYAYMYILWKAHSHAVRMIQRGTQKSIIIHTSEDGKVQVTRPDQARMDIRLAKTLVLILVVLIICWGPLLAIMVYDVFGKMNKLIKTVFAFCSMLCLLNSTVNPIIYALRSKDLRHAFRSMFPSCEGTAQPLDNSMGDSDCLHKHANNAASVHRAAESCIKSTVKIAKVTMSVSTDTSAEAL", "details": "in vitro, Thomas et al., 2005; cited from earlier work"}, "[6]": {"biological_target": "CB2 receptor (Homo sapiens, UniProt P34972)", "sequence (P34972 whole entry)": "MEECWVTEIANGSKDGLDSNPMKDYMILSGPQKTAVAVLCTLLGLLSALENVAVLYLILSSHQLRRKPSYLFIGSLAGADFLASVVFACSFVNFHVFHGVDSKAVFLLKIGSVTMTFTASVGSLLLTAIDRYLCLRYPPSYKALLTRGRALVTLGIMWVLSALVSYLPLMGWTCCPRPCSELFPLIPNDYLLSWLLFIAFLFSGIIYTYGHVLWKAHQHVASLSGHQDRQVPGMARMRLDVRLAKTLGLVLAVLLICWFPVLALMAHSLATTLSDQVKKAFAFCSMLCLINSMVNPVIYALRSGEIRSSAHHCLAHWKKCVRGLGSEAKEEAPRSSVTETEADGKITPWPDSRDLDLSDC", "details": "in vitro, Thomas et al., 2005; cited from earlier work"}, "[7]": {"details": "2.5 mg/kg i.p. 30 min before saccharin-LiCl pairing"}}, "note": "Entries after “also recorded” stand apart in the source; their conditions may differ. Like-named read-outs stand apart in the source and are kept apart here."}
{"compound": "CCCCCc1cc(O)c2c(c1)OC(C)(C)[C@@H]1CCC(C)=C[C@@H]21", "note": "[THC, tetrahydrocannabinol]", "values": [{"measurement": "LiCl-induced conditioned gaping reactions relative to group VEH", "setting": "[1]; [7]", "value": "significantly attenuated the LiCl-induced gaping reactions"}, {"measurement": "LiCl-induced conditioned gaping reactions relative to group VEH", "setting": "[1]; 10 mg/kg i.p. 30 min before saccharin-LiCl pairing", "value": "significantly attenuated the LiCl-induced gaping reactions"}, {"measurement": "suppression of toxin-induced conditioned gaping", "setting": "[2]; 0.5 mg/kg", "value": "suppress toxin-induced conditioned gaping"}]}
{"compound": "C=C(C)[C@@H]1CCC(C)=C[C@H]1c1c(O)cc(CCCCC)cc1O", "note": "[CBD, cannabidiol]", "values": [{"measurement": "suppression of toxin-induced conditioned gaping", "setting": "[2]; 5 mg/kg", "value": "suppress toxin-induced conditioned gaping"}]}
{"compound": "Cc1c(C(=O)NN2CCCCC2)nn(-c2ccc(Cl)cc2Cl)c1-c1ccc(Cl)cc1", "note": "[SR, rimonabant]", "values": [{"measurement": "conditioned gaping, 20 mg/kg compared with 10 mg/kg", "setting": "[3]; rat, in vivo", "value": "marginally more gaping"}, {"measurement": "LiCl-induced conditioned gaping reactions relative to group VEH", "setting": "[1]; [7]", "value": "potentiated LiCl-induced gaping reactions"}, {"measurement": "potentiation of the nausea produced by LiCl (potentiated gaping)", "setting": "[2]; 2.5 mg/kg, sub-threshold for nausea on its own, pre-treatment prior to saccharin-LiCl pairing, drug-free test 72 hours after conditioning", "value": "potentiated the nausea produced by LiCl"}]}
{"compound": "C=C(C)[C@@H]1CCC(C)=C[C@H]1c1c(O)cc(CCC)cc1O", "note": "[CBDV]", "values": [{"measurement": "LiCl-induced conditioned gaping reactions relative to group VEH", "setting": "[1]; [7]", "value": "marginally attenuated LiCl-induced gaping reactions"}, {"measurement": "LiCl-induced conditioned gaping reactions relative to group VEH", "setting": "[1]; 200 mg/kg i.p. 30 min before saccharin-LiCl pairing, 200 mg/kg", "value": "significantly attenuated the LiCl-induced gaping reactions; also recorded: statistically significant anti-nausea effect"}]}
{"compound": "CCCc1cc(O)c2c(c1)OC(C)(C)[C@@H]1CCC(C)=C[C@@H]21", "note": "[THCV, tetrahydrocannabivarin]", "values": [{"measurement": "conditioned gaping reactions (nausea-like reactions) elicited by 0.1% saccharin previously paired with the compound", "setting": "[3]; rats, i.p., all doses tested (SR 10, 20; AM251 10; THCV 10, 20; CBDV 10, 200 mg/kg), drug-free test 72 h after conditioning, vs VEH and other groups", "value": "did not produce apparent inverse agonist properties; also recorded: neither CBDV (10 or 200 mg/kg) nor THCV (10 or 20 mg/kg) produced the nausea-like profile of conditioned gaping"}, {"measurement": "human equivalent dose of the dose that blocked LiCl-induced nausea", "setting": "[1]; calculated from the rat dose, Km rat 6, Km human 37", "value": "greater than 0.4 mg/kg"}, {"measurement": "dose that blocked LiCl-induced nausea", "setting": "[1]; in rats", "value": "greater than 2.5 mg/kg"}, {"measurement": "LiCl-induced conditioned gaping reactions relative to group VEH", "setting": "[1]; [7]", "value": "marginally attenuated LiCl-induced gaping reactions"}, {"measurement": "LiCl-induced conditioned gaping reactions relative to group VEH", "setting": "[1]; 10 mg/kg i.p. 30 min before saccharin-LiCl pairing, 10 mg/kg", "value": "no gaping reactions; also recorded: eliminated LiCl-induced nausea"}, {"measurement": "action at the CB1 receptor in vivo", "setting": "[4]", "value": "act as a CB1 receptor antagonist"}, {"measurement": "action at the CB1 receptor", "setting": "[5]", "value": "acts as a CB1 and CB2 receptor antagonist"}, {"measurement": "action at the CB2 receptor", "setting": "[6]", "value": "acts as a CB1 and CB2 receptor antagonist"}]}
